The text below walks through data of patent US20170008928A1, “NOVEL PEPTIDES AND PEPTIDE DERIVATIVES AND USES THEREOF” (Novo Nordisk A/S, priority 2015, published 2017).

Read-outs that look alike come from different tables or passages of the source. Non-standard residues stand in square brackets, D forms with d. Residues, ends and D or L forms follow the SMILES beside them. Phe(4-CH2SO3H) = N[C@@H](Cc1ccc(CS(=O)(=O)O)cc1)C(=O)O; sY = N[C@@H](Cc1ccc(OS(=O)(=O)O)cc1)C(=O)O; NMeF = CN[C@@H](Cc1ccccc1)C(=O)O; dNMeD = CN[C@H](CC(=O)O)C(=O)O; Nle = CCCC[C@H](N)C(=O)O Some results are limits rather than exact numbers.

The target of assay [1] is T1, human cholecystokinin-2 receptor (CCK-2R) (Homo sapiens, UniProt P32239).
T1 construct: host or cells: 1321-N1 cells (plasma membranes prepared by Evotec AG Hamburg)
T1 sequence (P32239 1-447): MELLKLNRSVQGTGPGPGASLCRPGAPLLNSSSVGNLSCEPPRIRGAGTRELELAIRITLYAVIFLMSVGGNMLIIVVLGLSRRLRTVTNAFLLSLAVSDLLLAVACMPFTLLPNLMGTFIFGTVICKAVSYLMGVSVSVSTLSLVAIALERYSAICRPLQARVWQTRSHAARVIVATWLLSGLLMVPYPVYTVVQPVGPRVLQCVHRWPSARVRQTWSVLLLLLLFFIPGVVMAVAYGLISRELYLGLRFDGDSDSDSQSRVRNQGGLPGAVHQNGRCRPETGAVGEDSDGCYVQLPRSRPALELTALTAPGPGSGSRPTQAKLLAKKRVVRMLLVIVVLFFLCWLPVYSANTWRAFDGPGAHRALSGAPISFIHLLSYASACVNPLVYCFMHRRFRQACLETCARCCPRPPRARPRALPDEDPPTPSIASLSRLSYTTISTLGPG
Briefly: In vitro potency on CCK-2R, whole cell functional assay (IP1 accumulation, IP-One HTRF). In kind it is cell-based.

The target in assay [2] is T1, human cholecystokinin-2 receptor (CCK-2R). Briefly: In vitro receptor binding to CCK-2R, SPA displacement of [125I]-CCK-8s from plasma membranes. The method, then:
The in vitro binding affinity is a measure of the strength of attraction between a receptor and its ligand.
Displacement of radio ligand was measured as reduction in light emission from SPA beads.
The cells used in these assays were 1321-N1 cells stably expressing the CCK-1R or the CCK-2R (Perkin Elmer product numbers ES-530-A and ES-531-A, respectively see www.perkinelmer.com/Catalog/Product/ID/ES-530-A or -ES-531-A, respectively).
The cells were cultured in an incubator (95% RH (relative humidity), 5% (of standard atmospheric pressure) CO2, 37° C.) in cell culture medium (DMEM (Lonza catalogue BE-12-604F/U1), with 10% (v/v) Foetal Calf Serum (FCS, Gibco catalogue 16140-071), 1% (w/w) Sodium pyruvate (Gibco catalogue 11360-039), 500 μg/ml Geneticin® (G418) (Gibco catalogue 10131-027), 25 μg/ml Zeocin™ (Invitrogen catalogue R250-05), 1% (w/w) Pen/Strep (Gibco catalogue 15140-122)).
Plasma membranes were prepared by Evotec AG Hamburg by use of the ParrBomb (#4635, Parr Instrument Company). Cells were lysed with a lysis buffer (50 mM Tris, 2.5 mM EDTA, pH7) with added protease inhibitors (Complete Proteaseinhibitors EDTA-free (#05056489001, Roche), 1 tablet per 50 mL lysis buffer). The membrane fraction was separated by centrifugation. First, the cell lysate was centrifuged at 1000×g for 10 minutes at 4° C. The pellet was discarded and the supernatant was then centrifuged at 100.000×g for 30 minutes at 4° C. The supernatant was discarded and the pellet was re-suspended in 1 ml/5×10^8 cells ice cold membrane buffer (50 mM Tris, 320 mM Sucrose and Complete Proteaseinhibitors EDTA-free (#05056489001, Roche); pH7.4) and homogenised with dounce homogeniser. The protein concentration was determined using the Pierce™ BCA Protein Assay Kit according to kit manual, and the membrane preparation was adjust to the desired protein concentration with membrane buffer and aliquoted into pre-cooled tubes, snap-frozen in liquid nitrogen, and stored at −80° C.
CCK receptor binding assays were performed in 96-well Optiplates (Cat #6005290, PerkinElmer, Waltham, Mass., USA) in a total volume of 200 μl per well. CCK derivatives in 80% DMSO stock solutions of 800 μM were serially diluted […] in assay buffer (50 mM Tris/HCl, 4.5 mM MgCl2, […], 0.02% Tween 20, 0.25% ovalbumin, 0.1% pluronic F-68, pH 7.4) to final assay concentrations ranging from 10^−5 M (ten μM) to 10^−12 M (one pM).
Fifty μl of reference or test compounds were added to the Optiplates (using technical duplicates, i.e. two wells of each sample, one data point being the average of two wells), followed by addition of 150 μl of the mixture of SPA bead, radio ligand, and plasma membrane. The plates were sealed and incubated in the dark at +22° C. for 2 hours on a IKA MTS plate shaker (IKA-Werke D-79219 Staufen) set at 300 rpm and thereafter centrifuged at 1500 rpm for 10 minutes in a Heraeus Multifuge 3s centrifuge. SPA bead light emission was measured in a TopCount NXT (PerkinElmer) for 2 min/well after a delay of 60 min.
As a measure of compound affinity, calculations were performed in order to determine the half maximal inhibitory concentration (the IC50 value).
The data from the TopCounter were given as counts per minute (CPM). The CPM was plotted as a function of the concentration of compound. Dose-response curves were obtained, and IC50 values were calculated, by a nonlinear three-parameter logistic equation (log(agonist) vs response) with hillslope=−1, and shared top and bottom using the software programme GraphPad Prism v 6.0 (Graph Pad software, La Jolla, Calif., USA). The highest dose tested was 10^−5 M (1×10^7 pM).
The preference of a specific compound for the CCK-1 receptor, or the CCK-1R selectivity, may be defined as IC50 (CCK-2R)/IC50 (CCK-1R).
A minimum of three biological replicates was measured for each test compound on separate assay plates.
(In general: Loss of bound radioactivity is the signal in a displacement assay; it reports binding, not function.)

[3] abbreviates: 1321-N1 cells stably expressing CCK-2R, IP1 accumulation, highest dose tested 1×10^6 pM, read-out: EC50 (CCK-2R).
The mark [4] stands for this setting: displacement of [125I]-CCK-8s, plasma membranes of 1321-N1 cells expressing CCK-2R, highest dose tested 1×10^7 pM, read-out: IC50 (CCK-2R).

For `CCCC[C@H](NC(=O)[C@H](Cc1c[nH]c2ccccc12)NC(=O)CNC(=O)[C@H](CC(C)C)NC(=O)[C@H](Cc1ccc(OS(=O)(=O)O)cc1)NC(=O)[C@H](CC(=O)O)NC(=O)CC[C@H](NC(=O)COCCOCCNC(=O)COCCOCCNC(=O)CC[C@H](NC(=O)CCCCCCCCCCCCCCCCC(=O)O)C(=O)O)C(=O)O)C(=O)N(C)[C@H](CC(=O)O)C(=O)N(C)[C@@H](Cc1ccccc1)C(N)=O` [Example 32, (4S)-4-Carboxy-4-[[2-[2-[2-[[2-[2-[2-[[(4S)-4-carboxy-4-(17-carboxyheptadecanoylamino)butanoyl]amino]ethoxy]ethoxy]acetyl]amino]ethoxy]ethoxy]acetyl]amino]butanoyl-Asp-sTyr-Leu-Gly-Trp-Nle-DMeAsp-MePhe-amide], the EC50 (as a rule, the concentration at which the effect is half-maximal) in assay [1] (setting [3]) is 0.046 µM. Moreover, the IC50 (as a rule, the concentration that inhibits the measured activity by half) in assay [2] (setting [4]) worked out at 0.38 µM.

As to `CC(C)C[C@H](NC(=O)[C@H](Cc1ccc(OS(=O)(=O)O)cc1)NC(=O)[C@H](CCC(=O)O)NC(=O)COCCOCCNC(=O)COCCOCCNC(=O)CC[C@H](NC(=O)CCCCCCCCCCCCCCCCC(=O)O)C(=O)O)C(=O)NCC(=O)N[C@@H](Cc1c[nH]c2ccccc12)C(=O)N[C@@H](CCC(N)=O)C(=O)N(C)[C@H](CC(=O)O)C(=O)N[C@@H](Cc1ccccc1)C(N)=O` [Example 41, 2-[2-[2-[[2-[2-[2-[[(4S)-4-Carboxy-4-(17-carboxyheptadecanoylamino)butanoyl]amino]ethoxy]ethoxy]acetyl]amino]ethoxy]ethoxy]acetyl-Glu-sTyr-Leu-Gly-Trp-Gln-DMeAsp-Phe-amide], in assay [1] (setting [3]), the EC50 is greater than 1 µM. Besides, in assay [2] (setting [4]), the IC50 was greater than 10 µM.

Take `CCCC[C@H](NC(=O)[C@H](Cc1c[nH]c2ccccc12)NC(=O)CNC(=O)[C@H](CC(C)C)NC(=O)[C@H](Cc1ccc(CS(=O)(=O)O)cc1)NC(=O)[C@@H](N)CC(=O)O)C(=O)N(C)[C@H](CC(=O)O)C(=O)N(C)[C@@H](Cc1ccccc1)C(N)=O` [Example 57, Asp-Phe(4-sulfomethyl)-Leu-Gly-Trp-Nle-DMeAsp-MePhe-amide] (H-D[Phe(4-CH2SO3H)]LGW[Nle][dNMeD][NMeF]-NH2): the half-maximal effective concentration (EC50) in assay [1] (setting [3]) is greater than 1 µM. Besides, the IC50 in assay [2] (setting [4]) was greater than 10 µM.

In the case of `CC[C@H](C)[C@H](NC(=O)[C@H](Cc1c[nH]c2ccccc12)NC(=O)CNC(=O)[C@H](CC(C)C)NC(=O)[C@H](Cc1ccc(OS(=O)(=O)O)cc1)NC(=O)[C@@H](N)CC(=O)O)C(=O)N(C)[C@H](CC(=O)O)C(=O)N(C)[C@@H](Cc1ccccc1)C(N)=O` [Example 61, Asp-sTyr-Leu-Gly-Trp-Ile-DMeAsp-MePhe-amide] (H-D[sY]LGWI[dNMeD][NMeF]-NH2), the EC50 in assay [1] is greater than 1 µM. In addition, the IC50 in assay [2] was 6.1 µM.

Consider `CC(C)C[C@H](NC(=O)[C@H](Cc1ccc(OS(=O)(=O)O)cc1)NC(=O)[C@@H](N)CC(=O)O)C(=O)NCC(=O)N[C@@H](Cc1c[nH]c2ccccc12)C(=O)N1CCC[C@H]1C(=O)N(C)[C@H](CC(=O)O)C(=O)N(C)[C@@H](Cc1ccccc1)C(N)=O` [Example 66, Asp-sTyr-Leu-Gly-Trp-Pro-DMeAsp-MePhe-amide] (H-D[sY]LGWP[dNMeD][NMeF]-NH2), for which the EC50 in assay [1] is greater than 1 µM. Further, in assay [2], the IC50 was greater than 10 µM.

Turning to `CCCC[C@H](NC(=O)[C@H](Cc1c[nH]c2ccccc12)NC(=O)CNC(=O)[C@H](CCCCN)NC(=O)[C@H](Cc1ccc(OS(=O)(=O)O)cc1)NC(=O)[C@@H](N)CC(=O)O)C(=O)N(C)[C@H](CC(=O)O)C(=O)N(C)[C@@H](Cc1ccccc1)C(N)=O` [Example 67, Asp-sTyr-Lys-Gly-Trp-Nle-DMeAsp-MePhe-amide] (H-D[sY]KGW[Nle][dNMeD][NMeF]-NH2), the EC50 in assay [1] (setting [3]) is greater than 1 µM. The IC50 in assay [2] (setting [4]) was greater than 10 µM.

`CCCC[C@H](NC(=O)[C@@H](N)Cc1ccc(OS(=O)(=O)O)cc1)C(=O)NCC(=O)N[C@@H](Cc1c[nH]c2ccccc12)C(=O)N[C@@H](CCCC)C(=O)N(C)[C@H](CC(=O)O)C(=O)N(C)[C@@H](Cc1ccccc1)C(N)=O` [Example 72, sTyr-Nle-Gly-Trp-Nle-DMeAsp-MePhe-amide] (H-[sY][Nle]GW[Nle][dNMeD][NMeF]-NH2; N-terminus assumed): the EC50 in assay [1] (setting [3]) is greater than 1 µM. The IC50 in assay [2] (setting [4]) is greater than 10 µM.

On to `CCCC[C@H](NC(=O)[C@H](Cc1c[nH]c2ccccc12)NC(=O)CNC(=O)[C@@H](NC(=O)[C@H](Cc1ccc(OS(=O)(=O)O)cc1)NC(=O)[C@@H](N)CC(=O)O)[C@@H](C)CC)C(=O)N(C)[C@H](CC(=O)O)C(=O)N(C)[C@@H](Cc1ccccc1)C(N)=O` [Example 81, Asp-sTyr-Ile-Gly-Trp-Nle-DMeAsp-MePhe-amide] (H-D[sY]IGW[Nle][dNMeD][NMeF]-NH2), for which the EC50 in assay [1] (setting [3]) is greater than 1 µM. The 50% inhibitory concentration (IC50) in assay [2] (setting [4]) is greater than 10 µM.

For `CCCC[C@H](NC(=O)[C@H](Cc1c[nH]c2ccccc12)NC(=O)CNC(=O)[C@H](Cc1c[nH]cn1)NC(=O)[C@H](Cc1ccc(OS(=O)(=O)O)cc1)NC(=O)[C@@H](N)CC(=O)O)C(=O)N(C)[C@H](CC(=O)O)C(=O)N(C)[C@@H](Cc1ccccc1)C(N)=O` [Example 82, Asp-sTyr-His-Gly-Trp-Nle-DMeAsp-MePhe-amide] (H-D[sY]HGW[Nle][dNMeD][NMeF]-NH2), the EC50 in assay [1] (setting [3]) was greater than 1 µM. The IC50 in assay [2] (setting [4]) is greater than 10 µM.

Consider `CC(C)C[C@H](NC(=O)[C@H](Cc1ccc(OS(=O)(=O)O)cc1)NC(=O)[C@@H](N)CCC(=O)O)C(=O)NCC(=O)N[C@@H](Cc1c[nH]c2ccccc12)C(=O)N[C@@H](CCC(N)=O)C(=O)N(C)[C@H](CC(=O)O)C(=O)N[C@@H](Cc1ccccc1)C(N)=O` [Example 85, Glu-sTyr-Leu-Gly-Trp-Gln-DMeAsp-Phe-amide], for which the EC50 in assay [1] (setting [3]) is greater than 1 µM. Moreover, the half-maximal inhibitory concentration (IC50) in assay [2] (setting [4]) was greater than 10 µM.

In the case of `CC(C)C[C@H](NC(=O)[C@H](Cc1ccc(OS(=O)(=O)O)cc1)NC(=O)[C@@H](N)CCC(=O)O)C(=O)NCC(=O)N[C@@H](Cc1c[nH]c2ccccc12)C(=O)N[C@@H](CCC(N)=O)C(=O)N(C)[C@H](CC(=O)O)C(=O)N(C)[C@@H](Cc1ccccc1)C(N)=O` [Example 86, Glu-sTyr-Leu-Gly-Trp-Gln-DMeAsp-MePhe-amide], the EC50 in assay [1] (setting [3]) is greater than 1 µM. Also, the IC50 in assay [2] (setting [4]) is greater than 10 µM.

For the compound `CCCC[C@H](NC(=O)[C@H](Cc1c[nH]c2ccccc12)NC(=O)CNC(=O)[C@H](CC(C)C)NC(=O)[C@H](Cc1ccc(OS(=O)(=O)O)cc1)NC(=O)[C@H](N)CCC(=O)O)C(=O)N(C)[C@H](CC(=O)O)C(=O)N(C)[C@@H](Cc1ccccc1)C(N)=O` [Example 87, DGlu-sTyr-Leu-Gly-Trp-Nle-DMeAsp-MePhe-amide] (H-[dE][sY]LGW[Nle][dNMeD][NMeF]-NH2), the EC50 in assay [1] (setting [3]) is greater than 1 µM. The IC50 in assay [2] (setting [4]) was greater than 10 µM.
